From patent publication US10689377B2 (Mirati Therapeutics, Inc., priority 2017, dated 2020)

These compounds were tested against KRas G12C (Homo sapiens, UniProt P01116, G12C) (assay: Cellular inhibition of KRas G12C measured by Phospho-ERK in NCI-H358 cells). Conditions: pERK(Thr202/Tyr204) normalized with GAPDH, NCI-H358 cells, 3 hours; read-out: IC50.
Chain of KRas G12C (P01116 1-188 isoform P01116-2 G12C): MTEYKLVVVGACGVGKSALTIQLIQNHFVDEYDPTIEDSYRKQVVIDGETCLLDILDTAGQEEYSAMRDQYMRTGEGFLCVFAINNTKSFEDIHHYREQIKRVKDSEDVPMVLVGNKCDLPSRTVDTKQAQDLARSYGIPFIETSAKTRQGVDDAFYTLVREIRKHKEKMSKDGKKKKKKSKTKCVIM
Type: cell-based
Method in brief: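 NCI-H358 cells treated 3 h with compound (0.5% DMSO final), then fixed and methanol-permeabilised. In-cell immunofluorescence measured pERK(Thr202/Tyr204) normalised to GAPDH as percent of DMSO control. IC50 from a 4-parameter dose-response fit.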
For C=CC(=O)N1CCN(c2nc(N3CCCC(N(C)C)C3)nc3c2CCN(c2cccc4ccccc24)C3)C[C@@H]1CC#N (stereo partly drawn) [Example 405, 2-((2S)-1-acryloyl-4-(2-(3-(dimethylamino)piperidin-1-yl)-7-(naphthalen-1-yl)-5,6,7,8-tetrahydropyrido[3,4-d]pyrimidin-4-yl)piperazin-2-yl)acetonitrile], the IC50 was 0.1 to 1000 nM. In the case of C=CC(=O)N1CCN(c2nc(OC[C@@H]3CCCN3C)nc3c2CCN(c2cccc(F)c2Cl)C3)C[C@@H]1CC#N [Example 406, 2-((S)-1-acryloyl-4-(7-(2-chloro-3-fluorophenyl)-2-(((S)-1-methylpyrrolidin-2-yl)methoxy)-5,6,7,8-tetrahydropyrido[3,4-d]pyrimidin-4-yl)piperazin-2-yl)acetonitrile], the IC50 is reported as 0.1 to 1000 nM. C=CC(=O)N1CCN(c2nc(OC[C@@H]3CCCN3C)nc3c2CCN(c2cccc(F)c2F)C3)C[C@@H]1CC#N [Example 407, 2-((S)-1-acryloyl-4-(7-(2,3-difluorophenyl)-2-(((S)-1-methylpyrrolidin-2-yl)methoxy)-5,6,7,8-tetrahydropyrido[3,4-d]pyrimidin-4-yl)piperazin-2-yl)acetonitrile] showed an IC50 greater than 1000 nM. C=CC(=O)N1CCN(c2nc(NC[C@@H]3CCCN3C)nc3c2CCN(c2cccc4ccccc24)C3)C[C@@H]1CC#N [Example 408, 2-((S)-1-acryloyl-4-(2-((((S)-1-methylpyrrolidin-2-yl)methyl)amino)-7-(naphthalen-1-yl)-5,6,7,8-tetrahydropyrido[3,4-d]pyrimidin-4-yl)piperazin-2-yl)acetonitrile] gave an IC50 greater than 1000 nM. C=CC(=O)N1CCN(c2nc(OCCN3CCCCC3)nc3c2CCN(c2cccc4ccccc24)C3)C[C@@H]1CC#N [Example 409, (S)-2-(1-acryloyl-4-(7-(naphthalen-1-yl)-2-(2-(piperidin-1-yl)ethoxy)-5,6,7,8-tetrahydropyrido[3,4-d]pyrimidin-4-yl)piperazin-2-yl)acetonitrile] was tested, and the IC50 was 0.1 to 1000 nM. For C=CC(=O)N1CCN(c2nc(OC[C@@H]3CCN(C)C3)nc3c2CCN(c2cccc4ccccc24)C3)C[C@@H]1CC#N [Example 410, 2-((S)-1-acryloyl-4-(2-(((R)-1-methylpyrrolidin-3-yl)methoxy)-7-(naphthalen-1-yl)-5,6,7,8-tetrahydropyrido[3,4-d]pyrimidin-4-yl)piperazin-2-yl)acetonitrile], the IC50 was 0.1 to 1000 nM. Work on C=CC(=O)N1CCN(c2nc(OC[C@@H]3CCCN3C)nc3c2CCN(c2cccc(F)c2C)C3)CC1CC#N (stereo partly drawn) [Example 411, 2-(1-acryloyl-4-(7-(3-fluoro-2-methylphenyl)-2-(((S)-1-methylpyrrolidin-2-yl)methoxy)-5,6,7,8-tetrahydropyrido[3,4-d]pyrimidin-4-yl)piperazin-2-yl)acetonitrile] yielded an IC50 of 0.1 to 1000 nM. With C=CC(=O)N1CCN(c2nc(OC[C@@H]3CCCN3C)nc3c2CCN(c2c(F)cccc2C(F)(F)F)C3)CC1CC#N (some centres unmarked) [Example 412] the IC50 was 0.1 to 1000 nM. Compound C=CC(=O)N1CCN(c2nc(OC[C@@H]3CCCN3C)nc3c2CCN(c2ccc(F)cc2C(F)(F)F)C3)CC1CC#N (stereo partly drawn) [Example 413, 2-(1-acryloyl-4-(7-(4-fluoro-2-(trifluoromethyl)phenyl)-2-(((S)-1-methylpyrrolidin-2-yl)methoxy)-5,6,7,8-tetrahydropyrido[3,4-d]pyrimidin-4-yl)piperazin-2-yl)acetonitrile] has an IC50 of 0.1 to 1000 nM. Compound C=CC(=O)N1CCN(c2nc(OC[C@@H]3CCCN3C)nc3c2CCN(c2cccc(Cl)c2C(F)(F)F)C3)CC1CC#N (stereo partly drawn) [Example 414, 2-(1-acryloyl-4-(7-(3-chloro-2-(trifluoromethyl)phenyl)-2-(((S)-1-methylpyrrolidin-2-yl)methoxy)-5,6,7,8-tetrahydropyrido[3,4-d]pyrimidin-4-yl)piperazin-2-yl)acetonitrile] has an IC50 of 0.1 to 1000 nM. C=CC(=O)N1CCN(c2nc(OC[C@H]3C[C@H](O)CN3C)nc3c2CCN(c2cccc(F)c2C(F)(F)F)C3)CC1CC#N (stereo partly drawn) [Example 415, 2-(1-acryloyl-4-(7-(3-fluoro-2-(trifluoromethyl)phenyl)-2-(((2R,4S)-4-hydroxy-1-methylpyrrolidin-2-yl)methoxy)-5,6,7,8-tetrahydropyrido[3,4-d]pyrimidin-4-yl)piperazin-2-yl)acetonitrile] showed an IC50 of 0.1 to 1000 nM. C=CC(=O)N1CCN(c2nc(OC[C@H]3C[C@@H](O)CN3C)nc3c2CCN(c2cccc(F)c2C(F)(F)F)C3)CC1CC#N (stereo partly drawn) [Example 416, 2-(1-acryloyl-4-(7-(3-fluoro-2-(trifluoromethyl)phenyl)-2-(((2R,4R)-4-hydroxy-1-methylpyrrolidin-2-yl)methoxy)-5,6,7,8-tetrahydropyrido[3,4-d]pyrimidin-4-yl)piperazin-2-yl)acetonitrile] gave an IC50 of 0.1 to 1000 nM. C=CC(=O)N1CCN(c2nc(OC[C@H]3C[C@H](F)CN3C)nc3c2CCN(c2cccc(F)c2C(F)(F)F)C3)CC1CC#N (stereo partly drawn) [Example 417, 2-(1-acryloyl-4-(2-(((2R,4S)-4-fluoro-1-methylpyrrolidin-2-yl)methoxy)-7-(3-fluoro-2-(trifluoromethyl)phenyl)-5,6,7,8-tetrahydropyrido[3,4-d]pyrimidin-4-yl)piperazin-2-yl)acetonitrile] showed an IC50 of 0.1 to 1000 nM. For C=CC(=O)N1CCN(c2nc(OC[C@@]3(C)CCCN3C)nc3c2CCN(c2cccc(F)c2C(F)(F)F)C3)CC1CC#N (stereo partly drawn) [Example 418, 2-(1-acryloyl-4-(2-(((R)-1,2-dimethylpyrrolidin-2-yl)methoxy)-7-(3-fluoro-2-(trifluoromethyl)phenyl)-5,6,7,8-tetrahydropyrido[3,4-d]pyrimidin-4-yl)piperazin-2-yl)acetonitrile], the IC50 was 0.1 to 1000 nM. In the case of C=CC(=O)N1CCN(c2nc(OC[C@@H]3C[C@H](O)CN3C)nc3c2CCN(c2cccc4ccccc24)C3)CC1CC#N (stereo partly drawn) [Example 419, 2-(1-acryloyl-4-(2-(((2S,4S)-4-hydroxy-1-methylpyrrolidin-2-yl)methoxy)-7-(naphthalen-1-yl)-5,6,7,8-tetrahydropyrido[3,4-d]pyrimidin-4-yl)piperazin-2-yl)acetonitrile], the IC50 is reported as 0.1 to 1000 nM. Work on C=CC(=O)N1CCN(c2nc(OC[C@@H]3CCCN3C)nc3c2CCN(c2cccc(Cl)c2C)C3)C[C@@H]1CC#N [Example 420, 2-((S)-1-acryloyl-4-(7-(3-chloro-2-methylphenyl)-2-(((S)-1-methylpyrrolidin-2-yl)methoxy)-5,6,7,8-tetrahydropyrido[3,4-d]pyrimidin-4-yl)piperazin-2-yl)acetonitrile] yielded an IC50 of 0.1 to 1000 nM. Compound C=CC(=O)N1CCN(c2nc(OC[C@@H]3CCCN3C)nc3c2CCN(c2cccc(Cl)c2Cl)C3)C[C@@H]1CC#N [Example 421, 2-((S)-1-acryloyl-4-(7-(2,3-dichlorophenyl)-2-(((S)-1-methylpyrrolidin-2-yl)methoxy)-5,6,7,8-tetrahydropyrido[3,4-d]pyrimidin-4-yl)piperazin-2-yl)acetonitrile] has an IC50 of 0.1 to 1000 nM. For C=CC(=O)N1CCN(c2nc(OC[C@@H]3CCCN3C)nc3c2CCN(c2cccc(Cl)c2OC)C3)C[C@@H]1CC#N [Example 422, 2-((S)-1-acryloyl-4-(7-(3-chloro-2-methoxyphenyl)-2-(((S)-1-methylpyrrolidin-2-yl)methoxy)-5,6,7,8-tetrahydropyrido[3,4-d]pyrimidin-4-yl)piperazin-2-yl)acetonitrile], the IC50 was 0.1 to 1000 nM. With CN(C)C/C=C/C(=O)N1CCN(c2nc(OC[C@H]3CCCN3C)nc3c2CCN(c2cccc(Cl)c2C(F)(F)F)C3)C[C@@H]1CC#N [Example 423, 2-((S)-4-(7-(3-chloro-2-(trifluoromethyl)phenyl)-2-(((R)-1-methylpyrrolidin-2-yl)methoxy)-5,6,7,8-tetrahydropyrido[3,4-d]pyrimidin-4-yl)-1-((E)-4-(dimethylamino)but-2-enoyl)piperazin-2-yl)acetonitrile] the IC50 was 0.1 to 1000 nM. C=CC(=O)N1CCN(c2nc(OC[C@@H]3CCCN3C)nc3c2CCN(c2ccc(F)c(C)c2C)C3)C[C@@H]1CC#N [Example 424, 2-((S)-1-acryloyl-4-(7-(4-fluoro-2,3-dimethylphenyl)-2-(((S)-1-methylpyrrolidin-2-yl)methoxy)-5,6,7,8-tetrahydropyrido[3,4-d]pyrimidin-4-yl)piperazin-2-yl)acetonitrile] showed an IC50 of 0.1 to 1000 nM. C=CC(=O)N1CCN(c2nc(OC[C@@H]3CCCN3C)nc3c2CCN(c2cccc(C)c2Cl)C3)C[C@@H]1CC#N [Example 425, 2-((S)-1-acryloyl-4-(7-(2-chloro-3-methylphenyl)-2-(((S)-1-methylpyrrolidin-2-yl)methoxy)-5,6,7,8-tetrahydropyrido[3,4-d]pyrimidin-4-yl)piperazin-2-yl)acetonitrile] gave an IC50 of 0.1 to 1000 nM. In the case of C=CC(=O)N1CCN(c2nc(OC[C@@H]3C[C@@H](O)CN3C)nc3c2CCN(c2cccc(Cl)c2C(F)(F)F)C3)C[C@@H]1CC#N [Example 426, 2-((S)-1-acryloyl-4-(7-(3-chloro-2-(trifluoromethyl)phenyl)-2-(((2S,4R)-4-hydroxy-1-methylpyrrolidin-2-yl)methoxy)-5,6,7,8-tetrahydropyrido[3,4-d]pyrimidin-4-yl)piperazin-2-yl)acetonitrile], the IC50 is reported as 0.1 to 1000 nM. Work on CN(C)C/C=C/C(=O)N1CCN(c2nc(OC[C@@H]3CCCN3C)nc3c2CCN(c2cccc(Cl)c2C(F)(F)F)C3)C[C@@H]1CC#N [Example 427] yielded an IC50 of 0.1 to 1000 nM. With C=CC(=O)N1CCN(c2nc(OC[C@@H]3CCCN3C)nc3c2CCN(c2cccc(Cl)c2C(F)(F)F)C3)C[C@@H]1CC#N [Example 428, 2-((S)-1-acryloyl-4-(7-(3-chloro-2-(trifluoromethyl)phenyl)-2-(((S)-1-methylpyrrolidin-2-yl)methoxy)-5,6,7,8-tetrahydropyrido[3,4-d]pyrimidin-4-yl)piperazin-2-yl)acetonitrile] the IC50 was 0.1 to 1000 nM. Compound C=CC(=O)N1CCN(c2nc(OC[C@@H]3CCCN3C)nc3c2CCN(c2cccc4ccccc24)C3)CC1COC (stereo partly drawn) [Example 429, 1-(2-(methoxymethyl)-4-(2-(((S)-1-methylpyrrolidin-2-yl)methoxy)-7-(naphthalen-1-yl)-5,6,7,8-tetrahydropyrido[3,4-d]pyrimidin-4-yl)piperazin-1-yl)prop-2-en-1-one] has an IC50 greater than 1000 nM. C=CC(=O)N1CCN(c2nc(OC[C@@H]3CCCN3C)nc3c2CCN(c2cccc4ccncc24)C3)C[C@@H]1CC#N [Example 430] was tested, and the IC50 was 0.1 to 1000 nM.
